For 17 molecules, IC50, inhibition and EC50 results are on record in ChEMBL document CHEMBL1139604 (Bioorg Med Chem Lett, 2005).

Test [1] deals with T1, Geranylgeranyl transferase type I (Bos taurus, UniProt P29702+Q5EAD5). Description: Inhibition of bovine geranylgeranyl transferase type I. Format: protein-complex assay.
Test [2] concerns the target T2, Protein farnesyltransferase (Mus musculus) (UniProt Q61239+Q8K2I1). In words: Percent inhibition of Ras processing in H-ras transformed NIH3T3 cells at 100 nM. It is filed as functional, cell-based.
A short description of test [3]: Inhibition of bovine farnesyl transferase. Details: species or system Bos taurus.
In test [4] the target is T3, Protein farnesyltransferase (Mus musculus, UniProt Q61239+Q8K2I1). In words: Inhibition of Ras processing in H-ras transformed NIH3T3 cells in presence of Lonafarnib. It is filed as functional, cell-based.
Test [5] deals with T1, Geranylgeranyl transferase type I. In words: Inhibition of bovine geranylgeranyl transferase type I in presence of Lonafarnib. Format: protein-complex assay.
The nature of test [6]: Inhibition of bovine farnesyl transferase in presence of Lonafarnib. Details: species or system Bos taurus.
Test [7] deals with T3, Protein farnesyltransferase. Description: Inhibition of Ras processing in H-ras transformed NIH3T3 cells. Format: functional, cell-based.
For test [8], the target named is T2, Protein farnesyltransferase (Mus musculus). Description: Percent inhibition of Ras processing in H-ras transformed NIH3T3 cells at 1000 nM. It is filed as functional, cell-based.

Structures are written as SMILES. pEC50, pIC50: −log10 of the molar value. Where only a bound is given, the exact number is not on record here.

On to `Cn1cncc1C(O)(c1ccc(C#N)cc1)c1ccc2c(c1)n(-c1ccc3c(c1)OCO3)c(=O)n2C` (stereo not drawn), for which the pIC50 (as a rule, −log10 of the IC50, conventionally taken in molar units) in test [1] was under 5.00; in test [3] it was 8.10. Besides, the inhibition (usually the change of the read-out against control, counted positive when it falls) in test [2] is 0%.

In the case of `Cn1cncc1[C@@](N)(c1ccc(Cl)cc1)c1ccc2c(c1)c(-c1cccc(Cl)c1)cc(=O)n2C` [TIPIFARNIB], the pEC50 (commonly −log10 of the EC50, conventionally taken in molar units) in test [4] was 7.00. The pIC50 in test [5] is under 5.00; in test [6] it was 8.08.

Regarding `Cn1cncc1C(O)(c1ccc(Cl)cc1)c1ccc2c(c1)n(-c1ccc3ccccc3c1)c(=O)n2C` (stereo not drawn), the pIC50 is 5.54 in test [1] and 7.68 in test [3]. In test [2], this molecule registered an inhibition of 0%.

In test [3], `Cn1cncc1C(O)(c1ccc(Cl)cc1)c1ccc2c(c1)n(C)c(=O)n2-c1cccc(Cl)c1` (stereo not drawn) had a pIC50 of 5.96.

Turning to `Cn1cncc1C(O)(c1ccc(Cl)cc1)c1ccc2c(c1)n(Cc1cccc(Cl)c1)c(=O)n2C` (stereo not drawn), in test [3], the pIC50 was 6.82.

`Cn1cncc1C(O)(c1ccc(Cl)cc1)c1ccc2c(c1)n(-c1cccc(Cl)c1)c(=O)n2C` (stereo not drawn) showed an inhibition in test [2] of 26%. This molecule also gave a pIC50 in test [3] of 7.80.

`Cn1cncc1C(O)(c1ccc(I)cc1)c1ccc2c(c1)n(-c1cccc(Cl)c1)c(=O)n2C` (stereo not drawn): the pIC50 in test [1] is 5.92; in test [3] it was 7.62. The molecule also showed an inhibition in test [2] of 2%.

On to `COc1cccc(-n2c(=O)n(C)c3ccc(C(O)(c4ccc(Cl)cc4)c4cncn4C)cc32)c1` (stereo not drawn), for which the pIC50 is under 5.00 in test [1] and 8.17 in test [3]. The inhibition in test [2] was 24%.

For the molecule `CCOc1cccc(-n2c(=O)n(C)c3ccc(C(O)(c4ccc(Cl)cc4)c4cncn4C)cc32)c1` (stereo not drawn), the pIC50 in test [1] is 5.12; in test [3], 8.18. The same molecule gave a pEC50 in test [7] of 7.66.

For `Cn1cncc1C(O)(c1ccccc1)c1ccc2ccn(-c3cccc4ccccc34)c2c1` (stereo not drawn), the pIC50 in test [3] was 6.70.

`COc1cccc(-n2c(=O)n(C)c3ccc(C(O)(c4ccc(C#N)cc4)c4cncn4C)cc32)c1` (stereo not drawn): the pIC50 in test [1] is under 5.00; in test [3] it was 8.29.

`Cn1cncc1C(O)(c1ccccc1)c1ccc2ccn(-c3cccc(Cl)c3)c2c1` (stereo not drawn): the inhibition in test [8] is 13%. In test [3], this molecule gave a pIC50 of 7.44.

`Cn1cncc1C(O)(c1ccc(I)cc1)c1ccc2c(c1)n(Cc1cccc(Cl)c1)c(=O)n2C` (stereo not drawn) gave a pIC50 in test [3] of 7.15.

`CCOc1cccc(-n2c(=O)n(C)c3ccc(C(O)(c4ccc(C#N)cc4)c4cncn4C)cc32)c1` (stereo not drawn): the values for the pIC50 in test [1] and in test [3] were under 5.00 and 9.30, respectively. For the same molecule, the inhibition in test [2] was 47%.

Regarding `Cn1cncc1C(O)(c1ccc(C#N)cc1)c1ccc2c(c1)n(Cc1cccc(Cl)c1)c(=O)n2C` (stereo not drawn), the results for the pIC50 in test [1] and in test [3] were 5.25 and 8.28, respectively. This molecule also showed an inhibition in test [2] of 51%.

In turn, `Cn1cncc1C(O)(c1ccc(Cl)cc1)c1ccc2c(c1)n(-c1ccc3c(c1)OCO3)c(=O)n2C` (stereo not drawn) had a pIC50 in test [3] of 6.82.

With `Cn1cncc1C(O)(c1ccc(C#N)cc1)c1ccc2c(c1)n(-c1cccc(Cl)c1)c(=O)n2C` (stereo not drawn), the pIC50 in test [1] is 5.74; in test [3], 8.85. The molecule also had a pEC50 in test [7] of 7.74.
